The source of these data is ChEMBL document CHEMBL1201862, “PubChem BioAssay data set” (2004).

Test systems include NCI-H522; MCF7; RXF 393; MDA-N; A549; NCI-H23; MDA-MB-231; SK-MEL-28; HL-60; OVCAR-5; EKVX; HT-29; M14; CAKI-1; NCI-H460; K562; COLO 205; SN12C; UO-31; SNB-75.
Holding throughout (experiment): inhibition of tumour cell growth, NCI panel, 48 h

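Protocol summary: plate cells (96-well), add compound at 5 concentrations, incubate 48 h, interpolate endpoints linearly. The concentration for 50% growth inhibition is given as GI50.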 Calls of active or inactive are those of the source. No stated cut-off is given here; in the data, active = GI50 up to about 1.1 µM and inactive = higher.

With `Cc1cc(S(=O)(=O)Nc2nc3ccccc3nc2-c2cccc([N+](=O)[O-])c2)c(S)cc1Cl`, the GI50 in the assay with NCI-H522 was 16.8 µM (inactive); in the assay on MCF7 it was 24 µM (inactive); in the assay with RXF 393, 33.7 µM (inactive); in the assay on MDA-N it was 20.5 µM (inactive); with A549, 16.1 µM (inactive); with NCI-H23, 17.1 µM (inactive). For the same molecule, the GI50 in the assay with MDA-MB-231 was 58.5 µM (inactive); with SK-MEL-28 it was 15.8 µM (inactive); in the assay on HL-60, 20.4 µM (inactive); in the assay with OVCAR-5, 36.6 µM (inactive); with EKVX, 22.1 µM (inactive); in the assay with HT-29, 17.9 µM (inactive). Moreover, the GI50 was 17.2 µM (inactive) with M14; 18.3 µM (inactive) in the assay on CAKI-1; 11 µM (inactive) with NCI-H460; 26 µM (inactive) with K562; 16.3 µM (inactive) in the assay on COLO 205; 30 µM (inactive) in the assay with SN12C. For the same molecule, in the assay with UO-31, the GI50 is 22.5 µM (inactive).

Turning to `COc1cc2c(c3nc4ccccc4nc13)-c1ccc(SC)c(=O)cc1[C@@H](NC(C)=O)CC2`, the GI50 in the assay on NCI-H522 was 0.0327 µM (active); in the assay on MCF7, 0.0485 µM (active); in the assay with RXF 393, > 100 µM (inactive); in the assay with MDA-N, 0.0188 µM (active); in the assay on A549 it was 0.377 µM (active); in the assay with NCI-H23, 0.0247 µM (active). Besides, the GI50 in the assay with MDA-MB-231 was 0.0966 µM (active); in the assay with SK-MEL-28, > 56.4 µM (inactive); in the assay with EKVX it was 0.0525 µM (active); in the assay with HT-29, 0.0364 µM (active); with M14, 0.0617 µM (active); in the assay on CAKI-1, 1.83 µM (inactive). The GI50 with NCI-H460 was 0.0893 µM (active); in the assay on K562, 0.0328 µM (active); in the assay on COLO 205, 0.0262 µM (active); in the assay with SN12C, 0.0968 µM (active); in the assay on SNB-75, 0.0313 µM (active); with UO-31 it was 6.3 µM (inactive).

For the molecule `COc1ccc2c(c1)c1c(n2CCN2CCOCC2)-c2ccccc2CC1`, the GI50 is 35.4 µM (inactive) in the assay with NCI-H522; 30.8 µM (inactive) with MCF7; 34 µM (inactive) in the assay on RXF 393; 32.2 µM (inactive) in the assay with MDA-N; 30.8 µM (inactive) in the assay on A549; > 100 µM (inactive) in the assay on NCI-H23. The GI50 is 29.4 µM (inactive) in the assay with MDA-MB-231; 42.4 µM (inactive) in the assay with SK-MEL-28; 71.4 µM (inactive) with OVCAR-5; 36.6 µM (inactive) with HT-29; 41.4 µM (inactive) with M14; > 100 µM (inactive) in the assay with CAKI-1. For the same molecule, the GI50 in the assay with NCI-H460 is 31.9 µM (inactive); in the assay on K562, 15.3 µM (inactive); in the assay on COLO 205 it was 17.1 µM (inactive); with SN12C, 18.8 µM (inactive); in the assay on SNB-75 it was 39.7 µM (inactive); in the assay with UO-31, > 100 µM (inactive).

`CC(=O)Nc1ccccc1S(=O)(=O)c1c(-c2c(C)c(Cl)c(C)c(Cl)c2C)noc1C`: the GI50 in the assay with NCI-H522 is 49.5 µM (inactive); in the assay on MCF7 it was 35.1 µM (inactive); in the assay with RXF 393, 28.8 µM (inactive); in the assay on MDA-N, 37.2 µM (inactive); with A549 it was 60.1 µM (inactive); in the assay on NCI-H23 it was 67.6 µM (inactive). For the same molecule, the GI50 with MDA-MB-231 is 23.7 µM (inactive); with SK-MEL-28 it was > 100 µM (inactive); in the assay on OVCAR-5, > 100 µM (inactive); in the assay with EKVX, 48.9 µM (inactive); in the assay with HT-29 it was 55.2 µM (inactive); with M14, 74.3 µM (inactive). In addition, the GI50 in the assay with CAKI-1 is 28.9 µM (inactive); with NCI-H460, 26.5 µM (inactive); in the assay on K562, 33.3 µM (inactive); in the assay on COLO 205 it was > 100 µM (inactive); in the assay on SN12C, 30.3 µM (inactive); in the assay with SNB-75, 12.4 µM (inactive). Moreover, in the assay on UO-31, the GI50 was > 100 µM (inactive).

Consider `COc1cc(OC)c(/C=N/N=C(\N)NO)c(OC)c1`, for which the GI50 is > 100 µM (inactive) in the assay with NCI-H522; > 100 µM (inactive) in the assay on MCF7; > 100 µM (inactive) in the assay on RXF 393; > 100 µM (inactive) in the assay with MDA-N; 60.8 µM (inactive) in the assay with A549; > 100 µM (inactive) in the assay with NCI-H23. Besides, the GI50 is > 100 µM (inactive) with MDA-MB-231; > 100 µM (inactive) in the assay with SK-MEL-28; > 100 µM (inactive) in the assay with OVCAR-5; 35.4 µM (inactive) with EKVX; > 100 µM (inactive) in the assay with HT-29; 95.5 µM (inactive) in the assay with M14. For the same molecule, the GI50 in the assay on CAKI-1 is > 100 µM (inactive); with NCI-H460 it was 91.4 µM (inactive); in the assay with K562, 41.6 µM (inactive); in the assay with COLO 205, > 100 µM (inactive); in the assay with SN12C, > 100 µM (inactive); in the assay on SNB-75, 0.0255 µM (active). Moreover, the GI50 with UO-31 is 29 µM (inactive).

`CC(Cc1ccc(Cl)cc1Cl)NO` (stereo not drawn): the GI50 with NCI-H522 was 66.5 µM (inactive); in the assay on MCF7, > 100 µM (inactive); in the assay with RXF 393, > 100 µM (inactive); in the assay on MDA-N, > 100 µM (inactive); in the assay on A549 it was > 100 µM (inactive); in the assay on NCI-H23, > 100 µM (inactive). Also, the GI50 in the assay with MDA-MB-231 is > 100 µM (inactive); in the assay with SK-MEL-28, > 100 µM (inactive); in the assay on OVCAR-5, > 100 µM (inactive); in the assay on EKVX, 58.2 µM (inactive); in the assay on HT-29, > 100 µM (inactive); in the assay with M14, > 100 µM (inactive). For the same molecule, the GI50 in the assay on CAKI-1 is > 100 µM (inactive); in the assay with K562, 83.9 µM (inactive); with COLO 205, > 100 µM (inactive); with SN12C it was 92.7 µM (inactive); in the assay on SNB-75 it was 94 µM (inactive); with UO-31 it was > 100 µM (inactive).

`CC(=O)N(C(C)=O)n1c(Cc2ccc(C)cc2)nn(C(C)=O)c1=O`: the GI50 in the assay with NCI-H522, in the assay on MCF7, in the assay with MDA-N, in the assay with A549, in the assay with NCI-H23 and in the assay with MDA-MB-231 was > 100 µM (inactive) in each case. Further, the GI50 in the assay with SK-MEL-28, in the assay on HL-60, with OVCAR-5, in the assay with EKVX, in the assay on HT-29 and in the assay on M14 was > 100 µM (inactive) each time. For the same molecule, the GI50 in the assay on CAKI-1, with NCI-H460, in the assay on K562, with COLO 205, in the assay with SN12C and with SNB-75 was > 100 µM (inactive) throughout. Besides, in the assay with UO-31, the GI50 is > 100 µM (inactive).

Turning to `COc1cc(Nc2cc(Cl)cc(Cl)c2)nc(N)n1`, the GI50 in the assay on NCI-H522 was 20.4 µM (inactive); in the assay on MCF7, 27.2 µM (inactive); in the assay with RXF 393, 14.5 µM (inactive); in the assay with MDA-N, 27.1 µM (inactive); in the assay with A549, 19.9 µM (inactive); in the assay with NCI-H23 it was 20.3 µM (inactive). Moreover, the GI50 is 18.9 µM (inactive) with MDA-MB-231; 40 µM (inactive) in the assay with OVCAR-5; 6.11 µM (inactive) with EKVX; 17.8 µM (inactive) with HT-29; 20.1 µM (inactive) in the assay on M14; 20.4 µM (inactive) with CAKI-1. The GI50 with NCI-H460 was 16.6 µM (inactive); in the assay with K562, 30.7 µM (inactive); with COLO 205, 23.1 µM (inactive); in the assay on SN12C, 20.9 µM (inactive); in the assay on SNB-75 it was 15.5 µM (inactive); in the assay on UO-31 it was 16.9 µM (inactive).

Consider `O=C1C(C(O)(C(F)(F)Cl)C(F)(F)Cl)CCCC1C(O)(C(F)(F)Cl)C(F)(F)Cl` (stereo not drawn), for which the GI50 in the assay on NCI-H522, in the assay on MCF7, in the assay with RXF 393, in the assay on MDA-N, in the assay with A549 and in the assay with NCI-H23 was > 10 µM (inactive) in each case. The GI50 with MDA-MB-231, in the assay with SK-MEL-28, in the assay on OVCAR-5, in the assay on EKVX, in the assay on HT-29 and in the assay on M14 was > 10 µM (inactive) in each case. Moreover, the GI50 in the assay on CAKI-1, in the assay on NCI-H460 and with COLO 205 was > 10 µM (inactive) throughout.

On to `Brc1ccc(/N=N/N2CCCCC2)cc1`, for which the GI50 in the assay on NCI-H522 was 24 µM (inactive); in the assay with MCF7, 35.5 µM (inactive); in the assay with RXF 393, 38.3 µM (inactive); in the assay on MDA-N, 57.3 µM (inactive); in the assay on NCI-H23 it was 62.1 µM (inactive); with MDA-MB-231 it was > 100 µM (inactive). The GI50 with OVCAR-5 is 80.7 µM (inactive); with EKVX it was 40.1 µM (inactive); in the assay with M14, 85.9 µM (inactive); in the assay with CAKI-1 it was 88.1 µM (inactive); in the assay on NCI-H460, 45 µM (inactive); in the assay with K562, 27.4 µM (inactive). The GI50 in the assay with COLO 205 is 69.3 µM (inactive); in the assay on SN12C it was 57.9 µM (inactive); in the assay on SNB-75 it was 41.9 µM (inactive); in the assay with UO-31, 60 µM (inactive).

For `CC1=CC(=O)c2ccc(C)cc2C1=O` [CHIMAPHILIN], the GI50 in the assay on NCI-H522 was 4.09 µM (inactive); in the assay with MCF7 it was 3.05 µM (inactive); in the assay on MDA-N, 0.394 µM (active); with A549 it was 15.9 µM (inactive); with NCI-H23, 5.22 µM (inactive); with MDA-MB-231 it was 11.6 µM (inactive). Besides, the GI50 in the assay with SK-MEL-28 is 6.82 µM (inactive); in the assay with HL-60 it was 1.98 µM (inactive); with OVCAR-5, 19.9 µM (inactive); in the assay with EKVX, 7.1 µM (inactive); with HT-29, 38.6 µM (inactive); in the assay on M14, 16.3 µM (inactive). Besides, the GI50 is 5.78 µM (inactive) in the assay on CAKI-1; 14.2 µM (inactive) in the assay on NCI-H460; 3.65 µM (inactive) with K562; 16.3 µM (inactive) in the assay on COLO 205; 19.1 µM (inactive) in the assay on SN12C; > 10 µM (inactive) in the assay with SNB-75. Also, the GI50 in the assay on UO-31 was 11.4 µM (inactive).
